Common to all, as to assay type: biochemical
One assay has as its target T1, PI3K alfa (Homo sapiens, UniProt P42336).
T1 construct: for the p110-a subunit (with a deletion of the first 20 amino acids); His tag (C); made in house; host or cells: baculovirus; Tn5 (Trichoplusia ni) or TiniPro insect cells
The assay is described as follows: PI3 kinase assay (Kinase-Glo luminescence), PI3K alfa. The following applies: Enzymatic Data; read-out: PI3K alfa IC50 [umol]. The gist of the method: (§1)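 Recombinant PI3K constructs (alfa 10 nM, delta 10 nM, gamma 150 nM) with 1 μM ATP and 10 μg/mL phosphatidylinositol in Tris pH 7.5, MgCl2, NaCl, CHAPS, DTT; 60 min (alfa, delta) or 120 min (gamma) at room temperature. ATP depletion read by Kinase-Glo luminescence; IC50 from 4-parameter logistic fit over 8 concentrations.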

A further assay has as its target T2, PI3K gamma (Homo sapiens, UniProt P48736).
T2 construct: PI3Kγ BV-950 p110g(D144aa)-C-Term His Tag; His tag (C); made in house; host or cells: construct from the Roger Williams lab (MRC LMB) in pVL1393; baculovirus; Tn5 (Trichoplusia ni) or TiniPro insect cells
Put plainly: PI3 kinase assay (Kinase-Glo luminescence), PI3K gamma. The following applies: Enzymatic Data; read-out: PI3K gamma IC50 [umol]. The gist of the method:
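Kinase-Glo luminescence assay with 1 μM ATP and 10 μg/mL phosphatidylinositol (final), reaction started by ATP addition. IC50 from 4-parameter logistic fit of percent inhibition at 8 compound concentrations (usually 10 down to 0.003 […]).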

The next assay has as its target T3, PI3K beta (Homo sapiens, UniProt P42338).
T3 construct: for the full-length p110-b subunit are generated and fused by overlapping PCR; His tag (C); made in house; host or cells: baculovirus; Tn5 (Trichoplusia ni) or TiniPro insect cells
Put plainly: PI3 kinase assay (Kinase-Glo luminescence), PI3K beta. The following applies: Enzymatic Data; read-out: PI3K beta IC50 [umol]. In outline: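 PI3Kβ (25 nM, BV-949) with 10 μg/mL phosphatidylinositol in Tris pH 7.5/MgCl2/NaCl/CHAPS/DTT buffer; reaction started with 1 μM ATP, 60 min at room temperature. ATP depletion read by Kinase-Glo luminescence; 8-point dilutions, IC50 by four-parameter logistic fit.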

Another assay has as its target T4, PI3K delta (Homo sapiens, UniProt O00329).
T4 construct: for the full-length p110-d subunit are generated and fused by overlapping PCR; His tag (C); made in house; host or cells: baculovirus; Tn5 (Trichoplusia ni) or TiniPro insect cells
The assay is described as follows: PI3 kinase assay (Kinase-Glo luminescence), PI3K delta. The following applies: Enzymatic Data; read-out: PI3K delta IC50 [umol]. The gist of the method: as §1

Here are results for 16 molecules from patent US20100311729A1, “Substituted imidazopyridazines and pyrrolopyrimidines as lipid kinase inhibitors” (priority 2007, published 2010).

The structures appear in SMILES notation.

T4 sequence (O00329 with tags, fused parts or gaps limits assumed): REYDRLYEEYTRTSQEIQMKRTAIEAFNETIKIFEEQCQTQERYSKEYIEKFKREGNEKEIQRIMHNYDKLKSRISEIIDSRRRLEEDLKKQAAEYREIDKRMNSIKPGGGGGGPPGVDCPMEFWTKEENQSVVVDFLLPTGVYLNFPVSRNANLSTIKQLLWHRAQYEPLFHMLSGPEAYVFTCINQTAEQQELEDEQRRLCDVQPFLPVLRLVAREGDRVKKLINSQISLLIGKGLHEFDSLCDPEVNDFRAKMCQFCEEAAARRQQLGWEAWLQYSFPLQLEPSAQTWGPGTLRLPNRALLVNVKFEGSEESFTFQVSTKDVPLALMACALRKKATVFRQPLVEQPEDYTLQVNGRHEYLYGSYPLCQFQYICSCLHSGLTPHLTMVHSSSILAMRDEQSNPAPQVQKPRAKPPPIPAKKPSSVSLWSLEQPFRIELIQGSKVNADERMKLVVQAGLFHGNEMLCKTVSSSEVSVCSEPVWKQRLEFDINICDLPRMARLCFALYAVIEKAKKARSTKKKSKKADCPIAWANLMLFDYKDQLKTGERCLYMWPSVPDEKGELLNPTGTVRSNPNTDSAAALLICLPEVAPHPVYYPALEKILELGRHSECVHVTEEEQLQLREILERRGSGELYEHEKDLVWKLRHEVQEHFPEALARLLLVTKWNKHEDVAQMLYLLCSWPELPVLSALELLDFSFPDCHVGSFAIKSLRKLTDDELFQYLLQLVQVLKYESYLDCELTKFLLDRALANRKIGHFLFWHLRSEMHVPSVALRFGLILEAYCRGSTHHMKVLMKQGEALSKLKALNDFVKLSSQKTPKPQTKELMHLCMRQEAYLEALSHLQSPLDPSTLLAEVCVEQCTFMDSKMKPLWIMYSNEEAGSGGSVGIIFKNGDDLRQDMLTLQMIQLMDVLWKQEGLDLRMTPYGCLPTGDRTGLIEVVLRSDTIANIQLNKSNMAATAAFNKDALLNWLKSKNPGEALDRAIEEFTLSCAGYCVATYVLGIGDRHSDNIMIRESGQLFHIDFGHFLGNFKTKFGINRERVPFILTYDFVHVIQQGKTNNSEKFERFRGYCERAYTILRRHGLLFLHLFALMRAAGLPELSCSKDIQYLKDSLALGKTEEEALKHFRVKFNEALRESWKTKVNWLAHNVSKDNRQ
T3 sequence (P42338 with tags, fused parts or gaps limits assumed): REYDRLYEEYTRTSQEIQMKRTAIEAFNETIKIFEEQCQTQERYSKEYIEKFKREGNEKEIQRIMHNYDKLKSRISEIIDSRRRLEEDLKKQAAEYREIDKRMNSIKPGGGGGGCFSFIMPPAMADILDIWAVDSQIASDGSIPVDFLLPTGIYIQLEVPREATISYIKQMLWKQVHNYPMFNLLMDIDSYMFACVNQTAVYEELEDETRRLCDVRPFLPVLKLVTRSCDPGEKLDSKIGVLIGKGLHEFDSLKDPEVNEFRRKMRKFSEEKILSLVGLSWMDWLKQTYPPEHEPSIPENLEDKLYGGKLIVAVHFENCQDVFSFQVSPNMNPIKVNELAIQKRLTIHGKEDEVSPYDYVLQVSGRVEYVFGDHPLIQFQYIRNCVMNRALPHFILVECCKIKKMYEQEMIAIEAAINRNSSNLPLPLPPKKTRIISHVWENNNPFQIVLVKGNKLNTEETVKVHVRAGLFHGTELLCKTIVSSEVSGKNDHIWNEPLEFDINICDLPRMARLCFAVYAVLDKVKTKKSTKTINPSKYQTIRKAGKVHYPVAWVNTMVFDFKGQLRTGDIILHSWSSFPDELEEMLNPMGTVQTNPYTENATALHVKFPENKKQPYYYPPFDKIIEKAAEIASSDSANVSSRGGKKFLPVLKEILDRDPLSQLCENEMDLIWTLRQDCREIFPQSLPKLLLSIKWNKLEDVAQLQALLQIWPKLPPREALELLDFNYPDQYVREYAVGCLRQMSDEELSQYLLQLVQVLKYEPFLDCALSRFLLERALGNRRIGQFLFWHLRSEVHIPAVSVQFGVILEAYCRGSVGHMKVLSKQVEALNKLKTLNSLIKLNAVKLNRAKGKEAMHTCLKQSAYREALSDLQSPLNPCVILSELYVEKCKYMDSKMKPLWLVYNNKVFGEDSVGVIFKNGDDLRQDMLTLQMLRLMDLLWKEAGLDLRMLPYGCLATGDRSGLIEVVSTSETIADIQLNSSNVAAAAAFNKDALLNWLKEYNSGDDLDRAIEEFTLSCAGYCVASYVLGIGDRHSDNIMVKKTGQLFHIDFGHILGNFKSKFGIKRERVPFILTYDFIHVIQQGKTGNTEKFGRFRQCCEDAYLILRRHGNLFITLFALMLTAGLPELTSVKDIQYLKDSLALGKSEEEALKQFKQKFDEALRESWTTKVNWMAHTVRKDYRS
T1 sequence (P42336 with tags, fused parts or gaps limits assumed): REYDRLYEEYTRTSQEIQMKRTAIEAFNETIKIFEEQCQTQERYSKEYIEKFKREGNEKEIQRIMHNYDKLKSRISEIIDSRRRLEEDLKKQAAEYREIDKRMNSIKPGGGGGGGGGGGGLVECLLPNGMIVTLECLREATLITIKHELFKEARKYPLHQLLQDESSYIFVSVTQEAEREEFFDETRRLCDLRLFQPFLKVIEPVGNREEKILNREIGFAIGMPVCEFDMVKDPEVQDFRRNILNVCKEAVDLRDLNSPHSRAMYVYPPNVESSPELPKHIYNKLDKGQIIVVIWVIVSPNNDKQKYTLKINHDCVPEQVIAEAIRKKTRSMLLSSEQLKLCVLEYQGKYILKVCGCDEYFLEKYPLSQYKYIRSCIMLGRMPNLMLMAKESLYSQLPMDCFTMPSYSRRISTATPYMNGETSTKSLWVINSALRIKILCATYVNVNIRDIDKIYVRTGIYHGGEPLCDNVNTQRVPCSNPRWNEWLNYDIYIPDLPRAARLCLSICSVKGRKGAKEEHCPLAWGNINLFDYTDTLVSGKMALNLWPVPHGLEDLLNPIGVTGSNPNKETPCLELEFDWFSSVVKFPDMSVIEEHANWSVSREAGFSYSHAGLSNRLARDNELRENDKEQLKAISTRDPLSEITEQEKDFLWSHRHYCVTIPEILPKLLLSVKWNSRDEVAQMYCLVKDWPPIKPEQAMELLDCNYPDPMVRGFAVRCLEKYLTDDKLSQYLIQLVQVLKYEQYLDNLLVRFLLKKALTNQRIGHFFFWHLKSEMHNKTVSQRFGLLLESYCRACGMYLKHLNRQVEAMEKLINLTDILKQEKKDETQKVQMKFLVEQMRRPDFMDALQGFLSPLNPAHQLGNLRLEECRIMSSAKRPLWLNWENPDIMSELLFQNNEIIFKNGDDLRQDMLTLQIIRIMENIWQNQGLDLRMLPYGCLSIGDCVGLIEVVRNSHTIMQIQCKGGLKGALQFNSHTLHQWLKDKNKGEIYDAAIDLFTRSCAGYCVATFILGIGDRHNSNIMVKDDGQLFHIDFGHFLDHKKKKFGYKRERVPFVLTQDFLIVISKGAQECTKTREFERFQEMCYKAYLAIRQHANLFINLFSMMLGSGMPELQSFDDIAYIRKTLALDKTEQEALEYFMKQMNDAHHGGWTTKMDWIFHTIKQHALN
T2 sequence (P48736 144-1102 limits assumed): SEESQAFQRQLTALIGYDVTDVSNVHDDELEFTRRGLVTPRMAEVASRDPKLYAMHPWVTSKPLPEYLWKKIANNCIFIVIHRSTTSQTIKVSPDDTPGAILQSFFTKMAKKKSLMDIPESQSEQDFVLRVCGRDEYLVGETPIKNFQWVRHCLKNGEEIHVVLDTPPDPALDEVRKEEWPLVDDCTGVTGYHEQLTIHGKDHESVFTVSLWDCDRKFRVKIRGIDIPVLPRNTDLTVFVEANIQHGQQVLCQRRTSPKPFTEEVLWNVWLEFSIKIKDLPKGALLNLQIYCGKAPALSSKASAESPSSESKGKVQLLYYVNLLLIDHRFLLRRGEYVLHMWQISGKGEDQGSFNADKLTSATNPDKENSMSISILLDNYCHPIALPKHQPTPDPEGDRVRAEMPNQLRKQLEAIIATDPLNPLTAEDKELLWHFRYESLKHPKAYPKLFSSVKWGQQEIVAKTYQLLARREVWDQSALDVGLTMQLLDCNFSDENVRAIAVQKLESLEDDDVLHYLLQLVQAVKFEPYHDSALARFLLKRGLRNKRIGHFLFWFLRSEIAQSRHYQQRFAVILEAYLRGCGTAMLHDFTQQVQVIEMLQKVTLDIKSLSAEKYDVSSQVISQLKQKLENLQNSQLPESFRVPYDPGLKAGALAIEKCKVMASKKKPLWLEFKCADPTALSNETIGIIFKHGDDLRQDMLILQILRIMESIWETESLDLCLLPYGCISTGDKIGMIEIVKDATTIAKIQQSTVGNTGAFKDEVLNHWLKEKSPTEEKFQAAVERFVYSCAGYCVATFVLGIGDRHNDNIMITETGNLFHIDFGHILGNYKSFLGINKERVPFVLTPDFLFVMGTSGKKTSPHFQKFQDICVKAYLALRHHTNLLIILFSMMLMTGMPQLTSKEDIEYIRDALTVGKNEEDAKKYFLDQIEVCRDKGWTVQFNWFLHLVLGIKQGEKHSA

With `Nc1ncc(-c2cnc3ccc(-c4ccc(OCCCN5CCCC5=O)cc4)nn23)cc1C(F)(F)F` [Example 89, 1-(3-{4-[3-(6-Amino-5-trifluoro-methyl-pyridin-3-yl)-imidazo [1,2-b]pyridazin-6-yl]-phenoxy}-propyl)-pyrrolidin-2-one], the IC50 at PI3K alfa turned out to be 74 nM; at PI3K gamma, 543 nM; on PI3K beta, 2760 nM; at PI3K delta it was 88 nM.
Consider `Nc1ncc(-c2cnc3ccc(-c4ccc(OCCCN5CCCC5=O)c(F)c4)nn23)cc1C(F)(F)F` [Example 90, 1-(3-{4-[3-(6-Amino-5-trifluoro-methyl-pyridin-3-yl)-imidazo [1,2-b]pyridazin-6-yl]-2-fluoro-phenoxy}-propyl)-pyrrolidin-2-one], for which the IC50 was 1140 nM at PI3K alfa, 4690 nM on PI3K gamma, over 9100 nM at PI3K beta and 1110 nM at PI3K delta.
For `O=C1CCCN1CCCOc1ccc(-c2ccc3ncc(-c4cnc5[nH]ccc5c4)n3n2)cc1F` [Example 91, 1-(3-{2-Fluoro-4-[3-(1H-pyrrolo [2,3-b]pyridin-5-yl)-imidazo [1,2-b]pyridazin-6-yl]-phenoxy}-propyl)-pyrrolidin-2-one], in that order: 155 nM, 6540 nM, 7620 nM and 530 nM.
For `Nc1ncc(-c2cnc3ccc(-c4ccc(OCCn5cccn5)cc4)nn23)cc1C(F)(F)F` [Example 92, 5-{6-[4-(2-Pyrazol-1-yl-ethoxy)-phenyl]-imidazo [1,2-b]pyridazin-3-yl}-3-trifluoro-methyl-pyridin-2-ylamine], in that order: 573 nM, over 9100 nM, 4110 nM and 1240 nM.
For `c1cnn(CCOc2ccc(-c3ccc4ncc(-c5cnc6[nH]ccc6c5)n4n3)cc2)c1` [Example 93, 6-[4-(2-Pyrazol-1-yl-ethoxy)-phenyl]-3-(1H-pyrrolo [2,3-b]pyridin-5-yl)-imidazo [1,2-b] pyridazine], in that order: 157 nM, 5840 nM, 6930 nM and 1270 nM.
As to `Nc1ncc(-c2cnc3ccc(-c4ccc(OCCN5CCCC5=O)c(F)c4)nn23)cc1C(F)(F)F` [Example 94, 1-(2-{4-[3-(6-Amino-5-trifluoro-methyl-pyridin-3-yl)-imidazo [1,2-b]pyridazin-6-yl]-2-fluoro-phenoxy}-ethyl)-pyrrolidin-2-one], the IC50 is 62 nM on PI3K alfa, 2150 nM on PI3K gamma, 441 nM at PI3K beta and 146 nM on PI3K delta.
For `Nc1ncc(-c2ccc3ncc(-c4ccc(C(=O)O)c(F)c4)n3n2)cc1C(F)(F)F` [Example 95, 4-[6-(6-Amino-5-trifluoro-methyl-pyridin-3-yl)-imidazo [1,2-b]pyridazin-3-yl]-2-fluoro-benzoic acid], in that order: 6 nM, 928 nM, 59 nM and 20 nM.
For `O=C1CCCN1CCOc1ccc(-c2ccc3ncc(-c4cnc5[nH]ccc5c4)n3n2)cc1F` [Example 96, 1-(2-{2-Fluoro-4-[3-(1H-pyrrolo [2,3-b]pyridin-5-yl)-imidazo [1,2-b]pyridazin-6-yl]-phenoxy)-ethyl)-pyrrolidin-2-one], in that order: 501 nM, 7660 nM, 4710 nM and 1090 nM.
For `Nc1ncc(-c2cnc3ccc(-c4ccc(OCCN5CCCC5=O)cc4)nn23)cc1C(F)(F)F` [Example 97, 1-(2-{4-[3-(6-Amino-5-trifluoro-methyl-pyridin-3-yl)-imidazo [1,2-b]pyridazin-6-yl]-phenoxy}-ethyl)-pyrrolidin-2-one], in that order: 75 nM, 1020 nM, 1550 nM and 56 nM.
On to `O=C1CCCN1CCOc1ccc(-c2ccc3ncc(-c4cnc5[nH]ccc5c4)n3n2)cc1` [Example 98, 1-(2-{4-[3-(1H-Pyrrolo[2,3-b]pyridin-5-yl)-imidazo [1,2-b]pyridazin-6-yl]-phenoxy}-ethyl)-pyrrolidin-2-one], for which the IC50 at PI3K alfa turned out to be 28 nM; on PI3K gamma, 2210 nM; on PI3K beta, 2940 nM; at PI3K delta it was 120 nM.
As to `Nc1ncc(-c2ccc3ncc(-c4ccc(C(=O)NCCN5CCOCC5)c(F)c4)n3n2)cc1C(F)(F)F` [Example 99, 4-[6-(6-Amino-5-trifluoro-methyl-pyridin-3-yl)-imidazo [1,2-b]pyridazin-3-yl]-2-fluoro-N-(2-morpholin-4-yl-ethyl)-benzamide], the IC50 on PI3K alfa is 9 nM; on PI3K gamma, 584 nM; on PI3K beta, 82 nM; on PI3K delta it was 15 nM.
For `Nc1ncc(-c2ccc3ncc(-c4ccc(C(=O)NCCCN5CCOCC5)c(F)c4)n3n2)cc1C(F)(F)F` [Example 100, 4-[6-(6-Amino-5-trifluoro-methyl-pyridin-3-yl)-imidazo [1,2-b]pyridazin-3-yl]-2-fluoro-N-(3-morpholin-4-yl-propyl)-benzamide], in that order: 24 nM, 419 nM, 94 nM and 26 nM.
With `Nc1ncc(-c2ccc3ncc(-c4ccc(C(=O)N5CCN(Cc6ccccn6)CC5)c(F)c4)n3n2)cc1C(F)(F)F` [Example 101, {4-[6-(6-Amino-5-trifluoro-methyl-pyridin-3-yl)-imidazo [1,2-b]pyridazin-3-yl]-2-fluoro-phenyl}-(4-pyridin-2-ylmethyl-piperazin-1-yl)-methanone], the IC50 on PI3K alfa was 8 nM; on PI3K gamma it was 1170 nM; at PI3K beta, 168 nM; on PI3K delta, 30 nM.
For `Nc1ncc(-c2ccc3ncc(-c4ccc(S(=O)(=O)N5CCOCC5)cc4)n3n2)cc1C(F)(F)F` [Example 102, 5-{3-[4-(Morpholine-4-sulfonyl)-phenyl]-imidazo[1,2-b]pyridazin-6-yl}-3-trifluoromethyl-pyridin-2-ylamine], the IC50 on PI3K alfa worked out at 43 nM; at PI3K gamma, 1060 nM; on PI3K beta, 1270 nM; on PI3K delta, 17 nM.
As to `COc1cc(-c2ccc3ncc(-c4cnc(N)c(C(F)(F)F)c4)n3n2)ccc1OCCN1CCCC1=O` [Example 103, 1-(2-{4-[3-(6-Amino-5-trifluoro-methyl-pyridin-3-yl)-imidazo [1,2-b]pyridazin-6-yl]-2-methoxy-phenoxy}-ethyl)-pyrrolidin-2-one], the IC50 was 4 nM on PI3K alfa, 573 nM on PI3K gamma, 134 nM on PI3K beta and 11 nM at PI3K delta.
Take `C=CS(=O)(=O)c1ccc(-c2cnc3ccc(-c4cnc(N)c(C(F)(F)F)c4)nn23)cc1` [Example 104, 5-[3-(4-Ethene-sulfonyl-phenyl)-imidazo [1,2-b]pyridazin-6-yl]-3-trifluoro-methyl-pyridin-2-ylamine]: the IC50 stood at 27 nM on PI3K alfa, 1420 nM at PI3K gamma, 143 nM on PI3K beta and 21 nM at PI3K delta.
